Results as given in patent US11833256B2, “Selective RARγ ligand-loaded nanoparticles for manipulation of targeted bone growth” (University Of Maryland, Baltimore, priority 2017, dated 2023).

What was measured:
[1] = system: retinoic acid response element (RARE)-Luc; assay: RARE-luc reporter assay in primary mouse chondrocytes; type: cell-based; conditions: 10 nM RA added, 0.3% FBS DMEM
Procedure: Primary mouse epiphyseal chondrocytes were isolated from neonatal C57BL/6J mice according to known methods (Yasuhara et al., Lab. Invest. 91(12):1739-1752, 2011) and were plated on 48- or 96-well plates and serum-starved overnight. Cultures were co-transfected with canonical BMP signaling reporter Id1-Luc or retinoic acid response element (RARE)-Luc plasmids and phRG-TK (Promega™) using Lipofectamine LTX™ and Plus™ reagent (Invitrogen™) according to the manufacturer's protocol. Twenty four hours later, cells were treated with rhBMP-2 and/or retinoid and incubated for an additional 24 hours. Cells then were harvested and subjected to dual luciferase assay (Promega™). Firefly luciferase activity was normalized to renilla luciferase activity generated by phRG-TK.
Monitoring activity of RARγ antagonists by RARE reporter assay. Cells were treated with indicated doses of CD2665 or MM11253. To detect the effect of RARγ antagonists in retinoid deficient culture condition (0.3% FBS DMEM), 10 nM RA was added to all cultures in experiments reported in FIG. 8A, FIG. 8B and FIG. 8C.
Primary mouse chondrocytes were isolated and transfected with the RARE-luc reporter gene by reverse transfection according to known methods. Details of the procedure are described in Cong et al., J. Biomater. Sci. Polym. Ed. 26(11):629-643, 2015. […]

[2] = system: ectopic endochondral bone formation in BMP-Matrigel; assay: Ectopic bone formation model (rhBMP-2-containing Matrigel injected subcutaneously); type: in vivo, mouse; conditions: for biological activities in an ectopic bone formation model: mouse, in vivo; for ectopic bone formation (μCT, BV/TV): oral gavage on day 3, 5 and 7, ectopic masses collected day 12, vs vehicle
Procedure: Ectopic bone formation was induced in mice according to known methods. See Shimono et al., J. Orthop. Res. 28(2):271-277, 2010. Briefly, recombinant human bone morphogenetic protein-2 (rhBMP-2; Gene Script™ Corp., Piscataway, NJ) was added to growth-factor reduced Matrigel™ (BD Bioscience™, Inc., Franklin Lakes, NJ) on ice to a final concentration of 4 µg/mL. Two hundred fifty 250 μL, rhBMP-2-containing Matrigel™ was injected into the left and right subcutaneous abdominal region of 2-month-old CD-1 female mice. Ectopic tissue samples were harvested and subjected to μCT and histological analyses.
After fixation, samples were subjected to μCT analysis using a CT35 scanner (SCANCO USA™ Inc., Southeastern, PA) at 55 kV and […] for bone volume/tissue volume (BV/TV) analysis. Normalized BV/TV means were calculated by ratios of experimental versus control values.
To further evaluate the roles of RARγ and the efficacy of RARγ antagonists on bone formation, the effects of three selective RARγ antagonists were compared with the RARγ agonist, NRX204647, using a mouse ectopic bone model. Recombinant human BMP-2 containing Matrigel™ (BMPMatrigel) was transplanted subcutaneously in the abdomens of CD-1 female mice (ectopic bone formation model). The injected BMP-Matrigel™ mixture rapidly solidified and developed endochondral bone within 10 to 12 days (see FIG. 13B).
The BMP-Matrigel™ injected mice were randomly subdivided into groups and subjected to oral gavage with vehicle corn oil, RARγ agonist or each of the 3 antagonists on day 3, 5 and 7 (see structures in FIG. 13A). The control mouse with vehicle treatment had inductive masses in the Matrigel™-injected sites (see FIG. 13B). Ectopic tissue masses were collected on day 12 and subjected to X-ray and μCT analyses. Micro-CT images of pellets harvested 12 days after implantation were taken. FIG. 13C.
Mice with Matrigel™ Pellets as described above were administered vehicle or 4 mg/kg CD2665 on day 3, 5 and 7 after BMP2-Matrigel™ transplantation by gavage, and then analyzed on Day 7 or Day 12. FIG. 14A. Separately, a second group of mice were administered vehicle or 4 mg/kg CD2665 on day 7, 9 and 11 after BMP2-Matrigel transplantation and analyzed either on day 12 or 17. Pellets were collected at the indicated time, fixed and subjected to μCT analysis (bottom row). Pellets were then sectioned and stained with Alcian blue for quantitation of cartilage (top row).
Samples were first subjected to μCT analysis and were then sectioned and stained with Alcian blue for quantification of cartilage. For each group, 3 sections each (1 mm interval of 4 independent samples) were analyzed. […] For the experiments shown in FIG. 15A, mice were administered vehicle or 4 mg/kg of CD2665 by gavage on day 3, 5 and 7 from BMP-Matrigel™ implantation and samples were collected on day 7 or 12.
To examine these later stages more closely, mice implanted with BMP-Matrigel™ were treated with a RARγ antagonist on day 7, 9 and 11, and the ectopic tissue masses were analyzed on day 12 or 17 (FIG. 15B). […] The findings reaffirm that RARγ antagonists enhance cartilage formation during the middle stages of endochondral ossification and eventually lead to increases in bone formation. For experiments in FIG. 15B, mice were administered vehicle or 4 mg/kg CD2665 by gavage on day 7, 9 and 11 from implantation and analyzed on day 12 or 17. […]
Subcutaneous transplantation of rhBMP-2 containing Matrigel™ (BMP-Matrigel™) pellets in the abdomens of 2-month-old CD-1 female mice was performed. On day 3 and 10, 5 μl of empty NP or 7c-loaded NP (7c-NP: 3.5 μg in 5 μl) were injected around the Matrigel™ pellets. Ectopic bone tissue was corrected on day 15 and subjected to μCT analysis.

[3] = 4 mg/kg gavage day 3, 5, 7, analysed day 12
[4] = 4 mg/kg gavage day 7, 9, 11, analysed day 12

Structure (SMILES) | RARE-luc reporter activity (antagonists) [1] | amount of cartilage in ectopic masses (Alcian blue) ([2]; 4 mg/kg gavage day 3, 5, 7, analysed day 7) | area of cartilage in ectopic masses (Alcian blue) [2, 3] | mineralized tissue volume vs control (μCT) [2, 3] | amount of mineralized tissue vs control [2, 4] | cartilaginous tissue in ectopic masses [2, 4] | volume of bone vs control ([2]; 4 mg/kg gavage day 7, 9, 11, analysed day 17) | biological activities in an ectopic bone formation model [2] | ectopic bone formation (μCT, BV/TV) [2]
COCCOCOc1cc2ccc(-c3ccc(C(=O)O)cc3)cc2cc1C12CC3CC(CC(C3)C1)C2 [CD2665] | inhibited RARE-luc reporter activity | significantly higher amount of cartilage than controls | still more abundant in treated than control samples | about 2 fold | not significant | more cartilaginous tissue | significantly larger volume of bone than controls | proven biological activities | significantly increased the amount of detectable bone
CC1(C)CCC(C)(C)c2cc(C3(c4ccc5cc(C(=O)O)ccc5c4)SCCS3)ccc21 [MM11253] | inhibited RARE-luc reporter activity | – | – | – | – | – | – | proven biological activities | significantly increased the amount of detectable bone
